Key:
[1] = test system: A4-Fuk (B-Lymphoblastic Leukemia); assay: Bliss excess, mean over the matrix (fraction); higher = more synergy
Summary of the method: (§1)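 After 24 hours at 37°C and 5% CO2 in 1536-well plates, cells in DMEM/F12 or RPMI plus 10% FBS received two-drug dose matrices for 72 hours. Viability came from CellTiter-Glo 2.0 luminescence and was scaled as inhibition, anchored at 0 by vehicle wells and at 1 by blank wells. Combination Emax is taken as the second-highest inhibition in the matrix, and Bliss excess as the observed combination effect less EA + EB − EA·EB, with EA and EB the single-agent effects.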

[2] = test system: COLO-668 (Small Cell Lung Carcinoma); assay: as above
Summary of the method: as §1

[3] = test system: HAL-01 (B-Lymphoblastic Leukemia); assay: as above
Summary of the method: as §1

[4] = test system: MDA-MB-453 (Breast Carcinoma); assay: as above
Summary of the method: as §1

[5] = test system: ML-2 (Acute Myeloid Leukemia); assay: as above
Summary of the method: as §1

[6] = test system: NCI-H522 (Lung Adenocarcinoma); assay: as above
Summary of the method: as §1

[7] = test system: OE33 (Esophageal Adenocarcinoma); assay: as above
Summary of the method: as §1

[8] = test system: SNU-387 (Hepatocellular Carcinoma); assay: as above
Summary of the method: as §1

[9] = test system: SW982 (Other Solid Carcinomas); assay: as above
Summary of the method: as §1

[10] = test system: ALL-SIL (T-Lymphoblastic Leukemia); assay: combination Emax (second highest fraction inhibited in the dose matrix, 72 h); higher = more inhibition; extreme values may be limits of the assay
Summary of the method: as §1

[11] = test system: EJM (Plasma Cell Myeloma); assay: as above
Summary of the method: as §1

EW-1 (Ewing's Sarcoma) = assay: as above
Summary of the method: as §1

[12] = test system: HCC2998 (Colorectal Carcinoma); assay: as above
Summary of the method: as §1

Hey (Ovarian Carcinoma) = assay: as above
Summary of the method: as §1

[13] = test system: KOPN-8 (B-Lymphoblastic Leukemia); assay: as above
Summary of the method: as §1

[14] = test system: LC-1-sq (Squamous Cell Lung Carcinoma); assay: as above
Summary of the method: as §1

[15] = test system: NCI-H1092 (Small Cell Lung Carcinoma); assay: as above
Summary of the method: as §1

[16] = test system: NCI-H1838 (Lung Adenocarcinoma); assay: as above
Summary of the method: as §1

[17] = test system: NCI-H2122 (Lung Adenocarcinoma); assay: as above
Summary of the method: as §1

[18] = test system: OACM5-1 (Esophageal Adenocarcinoma); assay: as above
Summary of the method: as §1
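Throughout, for Bliss excess, mean over the matrix: after 72 h of two-drug dosing.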

| SMILES | Bliss excess [1] | Bliss excess [2] | Bliss excess [3] | Bliss excess [4] | Bliss excess [5] | Bliss excess [6] | Bliss excess [7] | Bliss excess [8] | Bliss excess [9] | combination Emax [10] | combination Emax [11] | combination Emax (EW-1 (Ewing's Sarcoma)) | combination Emax [12] | combination Emax (Hey (Ovarian Carcinoma)) | combination Emax [13] | combination Emax [14] | combination Emax [15] | combination Emax [16] | combination Emax [17] | combination Emax [18] |
| --- | --- | --- | --- | --- | --- | --- | --- | --- | --- | --- | --- | --- | --- | --- | --- | --- | --- | --- | --- | --- |
| CN(CCO)CC[C@H](CSc1ccccc1)Nc1ccc(S(=O)(=O)NC(=O)c2ccc(N3CCC([C@@H](O)c4ccccc4-c4ccc(Cl)cc4)CC3)cc2)cc1S(=O)(=O)C(F)(F)F [AZD4320] + C1CN(CCC1(C(=O)N[C@@H](CCO)C2=CC=C(C=C2)Cl)N)C3=NC=NC4=C3C=CN4 [Capivasertib] (first compound max 1 µM, 7x7, partner max 3 µM) | -0.0013 | 0.034 | 0.0022 | -0.0534 | -0.0659 | -0.034 | -0.0575 | -0.0399 | -0.0426 | 1 | 0.525 | 0.67 | 0.881 | 0.106 | 0.883 | 0.134 | 0.813 | 0.178 | 0.411 | 0.617 |
| CN(CCO)CC[C@H](CSc1ccccc1)Nc1ccc(S(=O)(=O)NC(=O)c2ccc(N3CCC([C@@H](O)c4ccccc4-c4ccc(Cl)cc4)CC3)cc2)cc1S(=O)(=O)C(F)(F)F [AZD4320] + CCN(CCO)CCCOc1ccc2c(Nc3cc(CC(=O)Nc4cccc(F)c4)[nH]n3)ncnc2c1 [AZD2811] (first compound max 1 µM, 7x7, partner max 1 µM) | 0.0624 | 0.0302 | -0.0085 | 0.0154 | 0.0557 | -0.0471 | -0.0398 | -0.0127 | 0.0447 | 1 | 0.406 | 0.863 | 0.753 | 0.254 | 0.963 | 0.264 | 0.866 | 0.216 | 0.794 | 0.398 |
| COc1cc2ncnc(Nc3ccc(F)c(Cl)c3)c2cc1OCCCN1CCOCC1 [Gefitinib] + CC(C)n1c(=O)n(C)c2cnc3cc(F)c(-c4ccc(OCCCN5CCCCC5)nc4)cc3c21 [AZD1390] (first compound max 10 µM, 7x7, partner max 0.3 µM) | -0.0704 | -0.0333 | 0 | -0.0171 | -0.0237 | -0.0551 | -0.0434 | -0.0714 | -0.0861 | 0.301 | 0.133 | 0.344 | 0.105 | 0.0522 | 0.241 | 0.265 | 0.0586 | 0.19 | 0.626 | 0.191 |
| CN(CCO)CC[C@H](CSc1ccccc1)Nc1ccc(S(=O)(=O)NC(=O)c2ccc(N3CCC([C@@H](O)c4ccccc4-c4ccc(Cl)cc4)CC3)cc2)cc1S(=O)(=O)C(F)(F)F [AZD4320] + Cn1cnc2c(F)c(Nc3ccc(Br)cc3Cl)c(C(=O)NOCCO)cc21 [Selumetinib] (first compound max 1 µM, 7x7, partner max 3 µM) | 0.073 | 0.114 | -0.0053 | -0.0218 | 0.0723 | -0.0181 | 0.0249 | 0.0149 | -0.0042 | 1 | 0.488 | 0.921 | 0.992 | 0.533 | 1 | 0.485 | 0.956 | 0.209 | 0.8 | 0.427 |
| Cc1cc2ncnn2cc1Nc1ncc2c(n1)n(C1CCOCC1)c(=O)n2C [AZD7648] + C[C@@H]1COCCN1C2=NC(=NC(=C2)C3(CC3)[S@](=N)(=O)C)C4=C5C=CNC5=NC=C4 [AZD6738] (first compound max 10 µM, 7x7, partner max 10 µM) | -0.0768 | 0.0093 | -0.0048 | 0.0076 | -0.0817 | 0.0231 | -0.0187 | -0.0236 | -0.096 | 0.925 | 0.893 | 0.871 | 0.87 | 0.689 | 0.891 | 0.827 | 0.302 | 0.612 | 0.949 | 0.443 |
| CN(CCO)CC[C@H](CSc1ccccc1)Nc1ccc(S(=O)(=O)NC(=O)c2ccc(N3CCC([C@@H](O)c4ccccc4-c4ccc(Cl)cc4)CC3)cc2)cc1S(=O)(=O)C(F)(F)F [AZD4320] + C[C@@H](Nc1cc(F)cc(F)c1)c1cc(C(=O)N(C)C)cc2c(=O)cc(N3CCOCC3)oc12 [AZD8186] (first compound max 1 µM, 7x7, partner max 3 µM) | 0.0025 | 0.0083 | 0.0337 | 0.02 | 0.0182 | -0.0481 | -0.0082 | 0.0168 | 0.0078 | 1 | 0.511 | 0.924 | 0.884 | 0.373 | 1 | 0.336 | 0.938 | 0.258 | 0.536 | 0.404 |
| Cc1cc2ncnn2cc1Nc1ncc2c(n1)n(C1CCOCC1)c(=O)n2C [AZD7648] + CCN(CCO)CCCOc1ccc2c(Nc3cc(CC(=O)Nc4cccc(F)c4)[nH]n3)ncnc2c1 [AZD2811] (first compound max 10 µM, 7x7, partner max 1 µM) | 0.0759 | 0.0084 | 0.0199 | -0.0013 | -0.116 | 0.0156 | -0.0315 | -0.0345 | -0.0569 | 0.97 | 0.242 | 0.312 | 0.191 | 0.41 | 0.58 | 0.325 | 0.182 | 0.506 | 0.355 | 0.293 |
| C[C@@H](c1ccc2nccn2c1)n1nnc2ncc(-c3cnn(C)c3)nc21 [Savolitinib] + CC1(C)CCC(CN2CCN(c3ccc(C(=O)NS(=O)(=O)c4ccc(NCC5CCOCC5)c([N+](=O)[O-])c4)c(Oc4cnc5[nH]ccc5c4)c3)CC2)=C(c2ccc(Cl)cc2)C1 [Venetoclax] (first compound max 1 µM, 7x7, partner max 1 µM) | -0.0269 | -0.0624 | -0.0387 | -0.0173 | 0.0096 | -0.0504 | 0.001 | -0.106 | -0.046 | 0.675 | 0.232 | 0.112 | 0.105 | 0.0566 | 0.743 | 0.116 | 0.248 | 0.146 | 0.196 | 0.166 |
| COc1cc2c(cc1OCCCCCOc1cc3c(cc1OC)C(=O)N1C=C(C)C[C@H]1C=N3)N=C[C@@H]1CC(C)=CN1C2=O [SG3199] + O=C(c1cc(Cc2n[nH]c(=O)c3ccccc23)ccc1F)N1CCN(C(=O)C2CC2)CC1 [Olaparib] (first compound max 0.001 µM, 7x7, partner max 10 µM) | -0.0267 | -0.0003 | 0.0067 | -0.0226 | 0.0179 | -0.0245 | -0.0276 | -0.0533 | -0.0195 | 0.337 | 0 | 0.636 | 0.389 | 0.196 | 0.719 | 0.187 | 0.152 | 0.14 | 0.21 | 0.0893 |
| Cc1nc(Nc2ncc(C(=O)Nc3c(C)cccc3Cl)s2)cc(N2CCN(CCO)CC2)n1 [Dasatinib] + CC(=O)Nc1cccc(-n2c(=O)n(C3CC3)c(=O)c3c(Nc4ccc(I)cc4F)n(C)c(=O)c(C)c32)c1 [Trametinib] (first compound max 2 µM, 7x7, partner max 1 µM) | -0.0013 | -0.0121 | 0.0436 | -0.035 | -0.122 | -0.0082 | -0.0082 | 0.0213 | -0.0319 | 1 | 0.153 | 0.153 | 1 | 0.858 | 0.545 | 0.166 | 0.125 | 0.367 | 0.942 | 0.417 |
